Among the data in BindingDB's records for doi:10.1046/j.1471-4159.1997.68062263.x (Dynamique Des Systemes Neuroendocriniens, 1997) are Ki values, retold here.

Molecules are shown by their SMILES. Numbered stars: 1 amine (or outer) side, 2 acyl side, 3 side chain; on linkers, the order of the positions; unused ones are H or OH. Bridge positions count the residues as written; N and C are the ends. Square brackets hold non-standard residues; d marks the D form. Peptide text beside a SMILES is read from it. ξ: configuration not given here. Phe(4-CH2NHiPr) = CC(C)NCc1ccc(C[C@H](N)C(=O)O)cc1; X1 = CC(C)NCc1ccc(C[C@@H](N[*:1])C(=O)[*:2])cc1; d1Nal = N[C@H](Cc1cccc2ccccc12)C(=O)O; Thr(3ξ) = CC(O)[C@H](N)C(=O)O; ξF = NC(Cc1ccccc1)C(=O)O; ξK = NCCCCC(N)C(=O)O; ξT = CC(O)C(N)C(=O)O

The Ki is a measure of affinity in units of concentration, obtained from inhibition or displacement. A high value points to weaker binding.

For assay [1], the target named is T1, Somatostatin receptor type 5 (Rattus norvegicus, UniProt P30938).
T1 sequence (P30938 whole entry): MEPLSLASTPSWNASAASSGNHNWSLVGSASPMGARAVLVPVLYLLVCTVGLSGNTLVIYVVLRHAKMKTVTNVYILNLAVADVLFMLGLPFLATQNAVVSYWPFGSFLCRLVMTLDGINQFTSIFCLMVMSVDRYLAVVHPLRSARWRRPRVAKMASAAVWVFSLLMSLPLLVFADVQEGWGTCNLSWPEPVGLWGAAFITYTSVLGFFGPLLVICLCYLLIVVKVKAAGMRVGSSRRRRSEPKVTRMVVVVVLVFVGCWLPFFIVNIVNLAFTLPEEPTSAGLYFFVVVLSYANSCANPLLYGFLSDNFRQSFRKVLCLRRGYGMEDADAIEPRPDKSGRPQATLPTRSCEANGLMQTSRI

Assay [2] deals with Somatostatin receptor type 1 (Rattus norvegicus, UniProt P28646).
Somatostatin receptor type 1, sequence (P28646 whole entry): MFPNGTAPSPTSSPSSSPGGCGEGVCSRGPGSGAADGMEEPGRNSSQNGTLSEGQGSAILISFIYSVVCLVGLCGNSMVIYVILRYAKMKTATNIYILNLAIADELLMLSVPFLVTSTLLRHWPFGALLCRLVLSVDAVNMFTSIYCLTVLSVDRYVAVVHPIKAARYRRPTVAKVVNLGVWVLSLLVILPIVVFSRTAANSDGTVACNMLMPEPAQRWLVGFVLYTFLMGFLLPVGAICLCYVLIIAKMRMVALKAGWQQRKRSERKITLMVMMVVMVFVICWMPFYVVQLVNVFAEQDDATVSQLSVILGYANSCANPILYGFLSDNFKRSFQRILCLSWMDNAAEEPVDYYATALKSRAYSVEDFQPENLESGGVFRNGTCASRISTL
In assay [3] the target is Somatostatin receptor type 2 (Rattus norvegicus, UniProt P30680).
Somatostatin receptor type 2, sequence (P30680 whole entry): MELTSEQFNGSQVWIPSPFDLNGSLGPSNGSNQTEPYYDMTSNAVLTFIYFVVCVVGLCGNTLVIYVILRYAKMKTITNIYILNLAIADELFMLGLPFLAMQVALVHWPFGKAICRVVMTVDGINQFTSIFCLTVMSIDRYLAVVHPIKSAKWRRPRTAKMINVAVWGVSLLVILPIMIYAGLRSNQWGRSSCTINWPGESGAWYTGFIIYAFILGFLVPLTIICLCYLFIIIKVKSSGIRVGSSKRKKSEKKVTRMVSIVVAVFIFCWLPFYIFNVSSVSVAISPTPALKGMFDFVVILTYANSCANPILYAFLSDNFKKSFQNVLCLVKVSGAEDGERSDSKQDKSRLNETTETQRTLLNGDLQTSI
In assay [4] the target is Somatostatin receptor type 3 (Rattus norvegicus, UniProt P30936).
Somatostatin receptor type 3, sequence (P30936 whole entry): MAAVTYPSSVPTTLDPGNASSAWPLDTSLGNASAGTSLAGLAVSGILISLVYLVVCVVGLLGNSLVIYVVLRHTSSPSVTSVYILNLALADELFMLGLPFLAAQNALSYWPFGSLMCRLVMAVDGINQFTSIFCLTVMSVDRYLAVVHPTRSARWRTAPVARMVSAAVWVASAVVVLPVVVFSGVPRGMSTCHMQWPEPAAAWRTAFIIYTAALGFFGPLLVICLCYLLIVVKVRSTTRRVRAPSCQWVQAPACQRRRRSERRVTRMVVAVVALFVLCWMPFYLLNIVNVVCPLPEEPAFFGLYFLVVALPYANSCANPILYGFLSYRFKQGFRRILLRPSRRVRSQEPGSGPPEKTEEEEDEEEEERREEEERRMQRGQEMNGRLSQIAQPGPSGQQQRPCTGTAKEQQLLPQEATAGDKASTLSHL
The target in assay [5] is Somatostatin receptor type 4 (Rattus norvegicus, UniProt P30937).
Somatostatin receptor type 4, sequence (P30937 whole entry): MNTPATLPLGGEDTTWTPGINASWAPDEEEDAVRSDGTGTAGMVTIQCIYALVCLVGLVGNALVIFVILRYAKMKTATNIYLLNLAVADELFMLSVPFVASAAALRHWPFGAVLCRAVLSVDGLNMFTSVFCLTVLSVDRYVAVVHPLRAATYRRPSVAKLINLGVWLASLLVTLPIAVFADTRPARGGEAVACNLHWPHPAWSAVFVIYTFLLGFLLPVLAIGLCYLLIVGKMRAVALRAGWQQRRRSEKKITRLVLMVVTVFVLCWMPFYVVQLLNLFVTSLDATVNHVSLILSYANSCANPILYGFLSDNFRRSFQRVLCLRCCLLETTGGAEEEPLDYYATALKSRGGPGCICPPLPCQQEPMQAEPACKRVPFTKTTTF

For `C[C@H](N)C(=O)NCC(=O)N[C@@H]1CSSC[C@@H](C(=O)O)NC(=O)[C@H](CO)NC(=O)[C@@H]([C@@H](C)O)NC(=O)[C@H](Cc2ccccc2)NC(=O)[C@@H]([C@@H](C)O)NC(=O)[C@H](CCCCN)NC(=O)[C@@H](Cc2c[nH]c3ccccc23)NC(=O)[C@H](Cc2ccccc2)NC(=O)[C@@H](Cc2ccccc2)NC(=O)[C@H](CC(N)=O)NC(=O)[C@@H](CCCCN)NC1=O`, affinity in assay [1] was put at a Ki of 2.6 nM.

Regarding `CC(C)[C@H](NC(=O)[C@H](CCCCN)NC(=O)[C@@H](Cc1c[nH]c2ccccc12)NC(=O)[C@H](Cc1ccc(O)cc1)NC(=O)[C@H](Cc1ccccc1)NC(=O)[C@@H](N)Cc1ccccc1)C(=O)N[C@@H](Cc1ccccc1)C(=O)N[C@H](Cc1cccc2ccccc12)C(N)=O` [BIM 23056] (H-FFY[dW]KVF[d1Nal]-NH2), in assay [1], the Ki was 32.5 nM.

`CC(C)[C@H](NC(=O)[C@H](CCCCN)NC(=O)[C@@H](Cc1c[nH]c2ccccc12)NC(=O)[C@H](Cc1ccc(O)cc1)NC(=O)[C@H](Cc1ccccc1)NC(=O)[C@H](N)Cc1ccccc1)C(=O)N[C@@H](Cc1ccccc1)C(=O)N[C@H](Cc1cccc2ccccc12)C(N)=O` [BIM 23056] (H-[dF]FY[dW]KVF[d1Nal]-NH2): the Ki in assay [2] was 301 nM; in assay [3] it was 835 nM; in assay [4] it was 380 nM; in assay [5], 83.8 nM.

Take `C[C@@H](O)[C@H](NC(=O)[C@H](Cc1ccccc1)NC(=O)[C@@H](NC(=O)[C@H](CCCCN)NC(=O)[C@@H](Cc1c[nH]c2ccccc12)NC(=O)[C@H](Cc1ccccc1)NC(=O)[C@H](Cc1ccccc1)NC(=O)[C@H](N)Cc1ccccc1)[C@@H](C)O)C(N)=O` [CAS_133073-82-2] (H-[dF]FF[dW]KTFT-NH2): the Ki in assay [3] was determined as 163 nM; in assay [4], 4.6 nM; in assay [5] it was 8.4 nM; in assay [1] it was 8.2 nM.

For `CC(C)NCc1ccc(C[C@@H]2NC(=O)[C@@H](Cc3c[nH]c4ccccc34)NC(=O)[C@H](Cc3ccccc3)NC(=O)[C@H](Cc3ccccc3)NC(=O)[C@H](CCCCN)NC(=O)[C@@H](N)CSSC[C@@H](C(=O)O)NC(=O)[C@H](CO)NC(=O)[C@H]([C@@H](C)O)NC(=O)[C@H](Cc3ccccc3)NC(=O)[C@H]([C@@H](C)O)NC2=O)cc1` [CH-275] (H-CKFF[dW][Phe(4-CH2NHiPr)]TFTSC-OH; disulfide 1-11), the Ki in assay [2] was 45.7 nM; in assay [3], 1000 nM; in assay [4], 577 nM; in assay [5], 465 nM.

Take `CC(C)NCc1ccc(C[C@H]2NC(=O)[C@H](Cc3c[nH]c4ccccc34)NC(=O)C(Cc3ccccc3)NC(=O)C(Cc3ccccc3)NC(=O)C(CCCCN)NC(=O)[C@H](N)CSSC[C@H](C(=O)O)NC(=O)[C@@H](CO)NC(=O)[C@H](C(C)O)NC(=O)[C@@H](Cc3ccccc3)NC(=O)C(C(C)O)NC2=O)cc1` (stereo not given in full) [CH-275] (H-[dC][ξK][ξF][ξF]W[X1][ξT][dF][Thr(3ξ)][dS][dC]-OH; disulfide 1-11): in assay [1], the affinity corresponds to a Ki of 279 nM.
